From patent publication US5663145A, “Products for administering an initial high dose of Cetrorelix and producing a combination package for use when treating diseases” (ASTA Medica Aktiengesellschaft, priority 1993, dated 1997)
Non-standard residues stand in square brackets, D forms with d. Residues, ends and D or L forms follow the SMILES beside them. dPhe(4-Cl) = N[C@H](Cc1ccc(Cl)cc1)C(=O)O; d2Nal = N[C@H](Cc1ccc2ccccc2c1)C(=O)O; dCit = NC(=O)NCCC[C@@H](N)C(=O)O; d3Pal = N[C@H](Cc1cccnc1)C(=O)O

How the values were obtained:
hormone concentration = test: clinical trials, daily dose of 10 mg, suppression of hormone concentration; assay type: in vivo, human; conditions: daily dose of 10 mg
Source text: This high daily dose cannot be applied in slow-release forms which are intended to act over a long period of time, for example several months. The depot injected under the skin would be too voluminous and would no longer be acceptable. Therefore there is the object of providing a product for reliable and acceptable application.

LH, FSH and testosterone = test: trial in humans over three weeks, initial dose plus maintenance doses, suppression of LH, FSH and testosterone; assay type: in vivo
Method: This surprising observation in animals was also confirmed in humans. […] The trial was performed over three weeks.

[1] = system: DMBA-induced mammary cancers; test: DMBA-induced mammary cancers in rats; assay type: in vivo; conditions: initial high dose and a further dose which is not active when administered on its own

CC(=O)N[C@H](Cc1ccc2ccccc2c1)C(=O)N[C@H](Cc1ccc(Cl)cc1)C(=O)N[C@H](Cc1cccnc1)C(=O)N[C@@H](CO)C(=O)N[C@@H](Cc1ccc(O)cc1)C(=O)N[C@H](CCCNC(N)=O)C(=O)N[C@@H](CC(C)C)C(=O)N[C@@H](CCCNC(=N)N)C(=O)N1CCC[C@H]1C(=O)N[C@H](C)C(N)=O [Cetrorelix] (Ac-[d2Nal][dPhe(4-Cl)][d3Pal]SY[dCit]LRP[dA]-NH2)
suppression of the hormone concentration (hormone concentration): complete suppression of the hormone concentration to castration level | suppression of LH, FSH and testosterone under maintenance doses after initial dose (LH, FSH and testosterone; after 10 mg initial dose, maintenance 1 mg every 12 hours, 2 mg every 24 hours or 1 mg every 24 hours, three weeks): suppression of LH, FSH and testosterone was maintained | suppression of LH, FSH and testosterone after initial dose (LH, FSH and testosterone; injection of an initial dose of 10 mg): led to suppression of LH, FSH and testosterone | suppression of LH, FSH and testosterone with maintenance doses on their own (LH, FSH and testosterone; maintenance doses (1 mg every 12 hours, 2 mg every 24 hours, 1 mg every 24 hours) applied on their own, no initial dose): suppression of LH, FSH and testosterone is not achieved | treatment of DMBA-induced mammary cancers [1]: successful treatment
